The values below come from patent publication US9567280B2, “Preparation of hop acids and their derivatives” (MillerCoors LLC, priority 2010, dated 2017).

“Also recorded” adds a separate entry of the source.

The nature of assay [1]: Bitterness perception in aqueous 5% v/v ethanol/H2O solution. The following applies: 6 ppm in 5% ethanol/H2O. The source says: An aqueous 5% v/v ethanol/H2O solution was spiked with 6 ppm of THICO I, II, and III.
Assay [2] is described as follows: Sensory evaluation of unhopped lagers spiked with THICO. From the text:
Two sets of unhopped lagers (A and B) were spiked with 6 ppm and 13 ppm of THICO I, II, and III, respectively.
The other two beers were noted as being similar with initial intense bitterness that diminished slowly with slight lingering bitterness.

Assay [3] concerns Pediococcus damnosus. The experiment in a line: Minimum inhibitory concentration (MIC) in modified BMB without Tween 80 culture medium. Conditions: for Growth of beer spoilage bacteria: hop acids in 70% ethanol; for Minimum inhibitory concentration (MIC): concentration at which no bacteria were detected. The class given is cell-based. Also on record: key to Growth of beer spoilage bacteria: + = Growth of beer spoilage bacteria; − = No growth of beer spoilage bacteria; +/− = Partial inhibition of bacterial growth. How it is done:
(§1) The antimicrobial effect of three molecules was tested on Pediococcus damnosus and Lactobacillus brevis with two methods (MIC and BZI). MIC was determined based on the concentration at which no bacteria were detected in the modified BMB without Tween 80 culture medium. […] The average diameters of the zones of bacterial inhibition in Universal Beer Agar (UBA) produced by the filter paper disks immersed in 4000 ppm of THICO I, II, and III in 70% ethanol/water are shown in Table 5. Zone diameters increased with the same rates for three molecules on two different organisms (Pediococcus damnosus and Lactobacillus brevis) indicate that all molecules have the same antibacterial effectiveness. No enantioselective antibacterial interactions between THICO I, II, III and the microbial occur.

The subject of the next assay is Lactobacillus brevis. The assay is described as follows: Bacterial zone of inhibition (BZI), filter paper disks on Universal Beer Agar. The format is cell-based. Conditions: disks immersed in 4000 ppm in 70% ethanol/water. How it is done:
as §1

Assay [4] has as its system Pediococcus damnosus. The assay is described as above. The format is cell-based. The following applies: disks immersed in 4000 ppm in 70% ethanol/water. The method, then: as §1
[5] abbreviates: set A: unhopped lager spiked with 6 ppm.

(+)-cis- and (−)-trans-THICO [THICO I]: the “Bitterness intensity (rank order)” value in assay [1] is “THICO II>(±)-THICO III>THICO I”. The “Sensory evaluation of bitterness in beer” value in assay [2] (setting [5]) was “a little more initial bitterness”. The “Growth of beer spoilage bacteria” value was “+” in the assay with Pediococcus damnosus [3] (0.5 ppm); “+” in the assay with Pediococcus damnosus [3] (1 ppm); “+” in the assay with Pediococcus damnosus [3] (2 ppm); “+” in the assay with Pediococcus damnosus [3] (4 ppm); “+” in the assay with Pediococcus damnosus [3] (8 ppm); “+/−” with Pediococcus damnosus [3] (16 ppm). For the same substance, the “Growth of beer spoilage bacteria” value with Pediococcus damnosus [3] (32 ppm), with Pediococcus damnosus [3] (64 ppm) and in the assay on Pediococcus damnosus [3] (128 ppm) was “−” each time. Further, in the assay on Pediococcus damnosus [3], the “Minimum inhibitory concentration (MIC)” value is reported as 16 ppm. Moreover, the “Diameter of Bacterial Zone of Inhibition” value was 26 mm in the assay with Lactobacillus brevis and 11.5 mm in the assay on Pediococcus damnosus [4].
Take “(±)-cis- and (±)-trans-tetrahydroisocohumulones [THICO III]”: the “Bitterness (bitter perception)” value is “smooth and milder than the others; also recorded: smooth, milder, clean” in assay [1]; “milder and smooth bitterness than THICO I; also recorded: smooth, clean and milder than I and II” in assay [1] (listed as (±)-THICO III). Besides, the “Bitterness intensity (rank order)” value in assay [1] is recorded as “II>III>I”; in assay [1] (listed as (±)-THICO III), “THICO II>(±)-THICO III>THICO I”. Also, the “Sensory evaluation of bitterness in beer” value in assay [2] (setting [5]) is listed as “diminished quickly”. Besides, the “Diameter of Bacterial Zone of Inhibition” value in the assay with Lactobacillus brevis stood at 22.5 mm; in the assay on Pediococcus damnosus [4] it was 12 mm.
Regarding “(−)-cis- and (+)-trans-tetrahydro isocohumulone [THICO II]”, the “Bitterness intensity (rank order)” value in assay [1] is listed as “THICO II>(±)-THICO III>THICO I”. Besides, the “Sensory evaluation of bitterness in beer” value in assay [2] (setting [5]) was “the most bitterness and longest lingering”; in assay [2] (set A: unhopped lager spiked with 6 ppm, listed as THCO II) it was “the strongest initial bitterness and lingered the longest”; in assay [2] (set B: unhopped lager spiked with 13 ppm), “strong initial bitterness that increased (described as late bitterness) and also lingered”. The “Growth of beer spoilage bacteria” value is reported as “+” in the assay with Pediococcus damnosus [3] (0.5 ppm); “+” in the assay on Pediococcus damnosus [3] (1 ppm); “+” in the assay on Pediococcus damnosus [3] (2 ppm); “+” in the assay on Pediococcus damnosus [3] (4 ppm); “+” with Pediococcus damnosus [3] (8 ppm); “+/−” with Pediococcus damnosus [3] (16 ppm). Moreover, the “Growth of beer spoilage bacteria” value in the assay with Pediococcus damnosus [3] (32 ppm), with Pediococcus damnosus [3] (64 ppm) and in the assay on Pediococcus damnosus [3] (128 ppm) was “−” in each case. Further, in the assay on Pediococcus damnosus [3], the “Minimum inhibitory concentration (MIC)” value stood at 16 ppm. In addition, the “Diameter of Bacterial Zone of Inhibition” value in the assay with Lactobacillus brevis amounted to 26.5 mm; with Pediococcus damnosus [4], 12 mm.
